Laboratory results reported in PubChem BioAssay (NCI).
Where “and” joins values, the source holds several entries; their conditions need not be identical. Equal values may be shown once.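 Results reflect a 48-hour exposure of cells in 96-well plates to compound at five concentrations. GI50 = concentration required for 50% inhibition of growth. TGI denotes the concentration required for complete inhibition of growth.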

Key:
Assay in all cases: NCI anticancer screen, dose series, 48 h
SK-MEL-28 melanoma = system: SK-MEL-28 melanoma
UACC-62 melanoma = system: UACC-62 melanoma
HOP-92 NSCLC = system: HOP-92 NSCLC
OVCAR-3 ovarian = system: OVCAR-3 ovarian
SNB-75 CNS = system: SNB-75 CNS
K-562 leukemia = system: K-562 leukemia
NCI-H460 lung = system: NCI-H460 lung
OVCAR-4 ovarian = system: OVCAR-4 ovarian
SR leukemia = system: SR leukemia
SK-MEL-5 melanoma = system: SK-MEL-5 melanoma

## CCc1nc2cc(/C=C/C(=O)NO)c(F)cc2c(=O)n1CCc1ccccc1
SK-MEL-28 melanoma
  GI50: 1.37 µM
  TGI: 6.97 µM
UACC-62 melanoma
  GI50: 0.597 µM
  TGI: 3.38 µM
HOP-92 NSCLC
  GI50: 2.51 µM
  TGI: 8.94 µM
OVCAR-3 ovarian
  GI50: 0.385 µM
  TGI: 4.76 µM
SNB-75 CNS
  GI50: 2.41 µM
  TGI: 17.3 µM
K-562 leukemia
  GI50: 1.65 µM
  TGI: > 100 µM
NCI-H460 lung
  GI50: 0.349 µM
  TGI: 3.4 µM
OVCAR-4 ovarian
  GI50: 0.689 µM
  TGI: 17.8 µM
SR leukemia
  GI50: 0.731 µM
  TGI: > 100 µM
SK-MEL-5 melanoma
  GI50: 0.512 µM
  TGI: 2.52 µM

## COC(=O)/C=C\C1C(C(=O)OC)C2(C(=O)OC)CCC1(C(=O)OC)N2 (centres undefined)
SK-MEL-28 melanoma
  TGI: 26.4 µM
UACC-62 melanoma
  TGI: 29.8 µM
HOP-92 NSCLC
  TGI: 19.6 µM
OVCAR-3 ovarian
  TGI: 28.7 µM
SNB-75 CNS
  TGI: 32.9 µM
K-562 leukemia
  TGI: 53.2 µM
NCI-H460 lung
  TGI: 42.5 µM
OVCAR-4 ovarian
  TGI: 34.5 µM
SR leukemia
  TGI: 16.7 µM
SK-MEL-5 melanoma
  TGI: 34.1 µM

## COc1ccc(S(=O)(=O)N2CCCCC2)cc1NC(=O)c1[nH]c(C)c2c1CCCCC2=O
SK-MEL-28 melanoma
  GI50: 2.72 µM
  TGI: > 100 µM
UACC-62 melanoma
  GI50: 0.356 µM
  TGI: 7.74 µM
HOP-92 NSCLC
  GI50: 0.59 µM
  TGI: 48.6 µM
OVCAR-3 ovarian
  GI50: 2.64 µM
  TGI: > 100 µM
SNB-75 CNS
  GI50: 0.141 µM
  TGI: 3.46 µM
K-562 leukemia
  GI50: 1.75 µM
  TGI: > 100 µM
NCI-H460 lung
  GI50: 4.01 µM
  TGI: > 100 µM
OVCAR-4 ovarian
  GI50: 2.11 µM
  TGI: > 100 µM
SR leukemia
  GI50: 0.762 µM
  TGI: > 100 µM
SK-MEL-5 melanoma
  GI50: 1.4 µM
  TGI: 3.88 µM

## CCCCCCCCCCCCCCCC[N+](C)(C)C
SK-MEL-28 melanoma
  GI50: 0.482 µM and 2.24 µM
  TGI: 1.72 µM and 6.88 µM
UACC-62 melanoma
  GI50: 0.258 µM and 1.43 µM
  TGI: 1.16 µM and 3.38 µM
HOP-92 NSCLC
  GI50: 0.0918 µM
  TGI: 0.353 µM
OVCAR-3 ovarian
  GI50: 0.182 µM and 1.16 µM
  TGI: 0.519 µM and 2.81 µM
SNB-75 CNS
  GI50: 0.142 µM and 1.36 µM
  TGI: 0.396 µM and 3.72 µM
K-562 leukemia
  GI50: 0.163 µM and 1.17 µM
  TGI: 1.1 µM and 2.83 µM
NCI-H460 lung
  GI50: 0.204 µM and 1.24 µM
  TGI: 0.412 µM and 2.81 µM
OVCAR-4 ovarian
  GI50: 0.232 µM and 1.52 µM
  TGI: 1.03 µM and 5.95 µM
SR leukemia
  GI50: 0.166 µM
  TGI: 0.551 µM
SK-MEL-5 melanoma
  GI50: 1.56 µM
  TGI: 2.95 µM

## COc1ccccc1NC(=O)N/C(N)=N/c1nc2ccccc2s1
SK-MEL-28 melanoma
  GI50: 30.7 µM
  TGI: > 100 µM
UACC-62 melanoma
  GI50: 0.0647 µM
  TGI: > 100 µM
HOP-92 NSCLC
  GI50: > 23.4 µM
  TGI: > 100 µM
OVCAR-3 ovarian
  GI50: 0.0403 µM
  TGI: 0.317 µM
SNB-75 CNS
  GI50: 0.0556 µM
K-562 leukemia
  GI50: 0.0351 µM
  TGI: > 100 µM
NCI-H460 lung
  GI50: 0.115 µM
  TGI: > 100 µM
OVCAR-4 ovarian
  GI50: 0.218 µM
  TGI: > 100 µM
SR leukemia
  GI50: 0.0228 µM
  TGI: > 100 µM
SK-MEL-5 melanoma
  GI50: 0.201 µM
  TGI: > 100 µM

## Cc1cc(Cl)ccc1N1C(=O)C(=O)C(c2nc3ccccc3s2)/C(=N\NC(=O)c2ccccc2O)C1=O (centres undefined)
SK-MEL-28 melanoma
  TGI: > 100 µM
UACC-62 melanoma
  TGI: > 100 µM
HOP-92 NSCLC
  TGI: > 100 µM
OVCAR-3 ovarian
  TGI: > 100 µM
SNB-75 CNS
  TGI: > 100 µM
K-562 leukemia
  TGI: > 100 µM
NCI-H460 lung
  TGI: > 100 µM
OVCAR-4 ovarian
  TGI: > 100 µM
SR leukemia
  TGI: > 100 µM
SK-MEL-5 melanoma
  TGI: > 100 µM

## CN(C)c1ccc2c(SCC(=O)OCC(=O)[C@@]3(O)CC[C@H]4[C@@H]5CCC6=CC(=O)C=C[C@]6(C)[C@H]5C(=O)C[C@@]43C)c3ccc(N(C)C)cc3nc2c1
SK-MEL-28 melanoma
  TGI: > 76.1 µM
UACC-62 melanoma
  TGI: 54.6 µM
HOP-92 NSCLC
  TGI: > 64.6 µM
OVCAR-3 ovarian
  TGI: > 100 µM
SNB-75 CNS
  TGI: > 89.7 µM
K-562 leukemia
  TGI: > 70.4 µM
NCI-H460 lung
  TGI: > 45.7 µM
OVCAR-4 ovarian
  TGI: > 72.1 µM
SR leukemia
  TGI: 4 µM
SK-MEL-5 melanoma
  TGI: > 100 µM

## CCCCCCCCCCSS(=O)(=O)c1ccc(C)cc1
SK-MEL-28 melanoma
  TGI: 10.2 µM
UACC-62 melanoma
  TGI: 16.1 µM
HOP-92 NSCLC
  TGI: 27.2 µM
OVCAR-3 ovarian
  TGI: 33.1 µM
SNB-75 CNS
  TGI: 5.22 µM
K-562 leukemia
  TGI: 46.8 µM
NCI-H460 lung
  TGI: 23.9 µM
OVCAR-4 ovarian
  TGI: 32 µM
SR leukemia
  TGI: 27.8 µM
SK-MEL-5 melanoma
  TGI: 17.2 µM

## CC(C)(C)c1ccc(NC(=O)c2cc(=O)c3ccccc3[nH]2)c(C(C)(C)C)c1O
SK-MEL-28 melanoma
  GI50: 12.8 µM
  TGI: 26 µM
UACC-62 melanoma
  GI50: 9.65 µM
  TGI: 22.9 µM
HOP-92 NSCLC
  GI50: 2.88 µM
  TGI: 12.8 µM
OVCAR-3 ovarian
  GI50: 4.84 µM
  TGI: 15.9 µM
SNB-75 CNS
  GI50: 7.4 µM
  TGI: 21.8 µM
K-562 leukemia
  GI50: 4.37 µM
  TGI: 16.7 µM
NCI-H460 lung
  GI50: 3.72 µM
  TGI: 13.9 µM
OVCAR-4 ovarian
  GI50: 4.18 µM
  TGI: 15.7 µM
SR leukemia
  GI50: 2.13 µM
  TGI: 4.69 µM
SK-MEL-5 melanoma
  GI50: 6.51 µM
  TGI: 19 µM

## O=C(O)C1(C(=O)O)CCN(S(=O)(=O)c2ccccc2)CC1
SK-MEL-28 melanoma
  TGI: > 100 µM
UACC-62 melanoma
  TGI: > 100 µM
HOP-92 NSCLC
  TGI: > 100 µM
OVCAR-3 ovarian
  TGI: > 100 µM
SNB-75 CNS
  TGI: > 100 µM
K-562 leukemia
  TGI: > 100 µM
NCI-H460 lung
  TGI: > 100 µM
OVCAR-4 ovarian
  TGI: > 100 µM
SR leukemia
  TGI: > 100 µM
SK-MEL-5 melanoma
  TGI: > 100 µM

## CCC1(c2ccncc2)CCC(=O)NC1=O (centres undefined)
SK-MEL-28 melanoma
  TGI: > 100 µM
UACC-62 melanoma
  TGI: > 100 µM
HOP-92 NSCLC
  TGI: > 100 µM
OVCAR-3 ovarian
  TGI: > 100 µM
SNB-75 CNS
  TGI: > 100 µM
K-562 leukemia
  TGI: > 100 µM
NCI-H460 lung
  TGI: > 100 µM
OVCAR-4 ovarian
  TGI: > 100 µM
SR leukemia
  TGI: > 100 µM
SK-MEL-5 melanoma
  TGI: > 100 µM

## O=C(O/N=C1/CCC/C1=C\c1ccccc1)c1ccc(Cl)cc1
SK-MEL-28 melanoma
  TGI: > 100 µM
UACC-62 melanoma
  TGI: > 100 µM
HOP-92 NSCLC
  TGI: > 100 µM
OVCAR-3 ovarian
  TGI: > 71.9 µM
SNB-75 CNS
  TGI: 78 µM
K-562 leukemia
  TGI: > 100 µM
NCI-H460 lung
  TGI: > 31.6 µM
OVCAR-4 ovarian
  TGI: 58.7 µM
SR leukemia
  TGI: > 100 µM
SK-MEL-5 melanoma
  TGI: > 100 µM

## CC(=O)OC1CC(C)c2c1ncnc2N1CCN(C(=O)OC(C)(C)C)CC1 (centres undefined)
SK-MEL-28 melanoma
  GI50: 72.9 µM
  TGI: > 100 µM
UACC-62 melanoma
  GI50: 46.4 µM
  TGI: > 100 µM
HOP-92 NSCLC
  GI50: 19.4 µM
  TGI: 91.4 µM
OVCAR-3 ovarian
  GI50: 32.3 µM
  TGI: 82.7 µM
SNB-75 CNS
  GI50: 25.2 µM
  TGI: > 100 µM
K-562 leukemia
  GI50: 37.8 µM
  TGI: > 100 µM
NCI-H460 lung
  GI50: 34.7 µM
  TGI: > 100 µM
OVCAR-4 ovarian
  GI50: 63.6 µM
  TGI: > 100 µM
SR leukemia
  GI50: 21.6 µM
  TGI: 63.7 µM
SK-MEL-5 melanoma
  GI50: 37.8 µM
  TGI: > 100 µM

## C[C@]1(O)CC(=O)[C@]2(O)C3=C(C=C[C@]2(O)C1)C(=O)c1c(O)cccc1C3=O
SK-MEL-28 melanoma
  GI50: 2.11 µM
  TGI: 4.25 µM
UACC-62 melanoma
  GI50: 1.86 µM
  TGI: 3.91 µM
HOP-92 NSCLC
  GI50: 1.51 µM
  TGI: 2.9 µM
OVCAR-3 ovarian
  GI50: 1.23 µM
  TGI: 2.62 µM
SNB-75 CNS
  GI50: 11.4 µM
  TGI: 26.4 µM
K-562 leukemia
  GI50: 0.706 µM
  TGI: 5.28 µM
NCI-H460 lung
  GI50: 5.15 µM
  TGI: 23.8 µM
OVCAR-4 ovarian
  GI50: 1.44 µM
  TGI: 2.79 µM
SR leukemia
  GI50: 0.635 µM
  TGI: 4.95 µM
SK-MEL-5 melanoma
  GI50: 1.75 µM
  TGI: 3.47 µM

## CCCCn1c(=O)c(/C=C/C(=O)/C=C/c2ccc(O)c(OC)c2)cc2ccc(Cl)cc21
SK-MEL-28 melanoma
  GI50: 1.93 µM
  TGI: 4.12 µM
UACC-62 melanoma
  GI50: 1.48 µM
  TGI: 3.24 µM
HOP-92 NSCLC
  GI50: 1.75 µM
  TGI: 4.19 µM
OVCAR-3 ovarian
  GI50: 1.7 µM
  TGI: 3.24 µM
SNB-75 CNS
  GI50: 2.26 µM
  TGI: 6.22 µM
K-562 leukemia
  GI50: 2.82 µM
  TGI: 12.8 µM
NCI-H460 lung
  GI50: 1.96 µM
  TGI: 4.17 µM
OVCAR-4 ovarian
  GI50: 2.34 µM
  TGI: 9.81 µM
SR leukemia
  GI50: 2.04 µM
  TGI: 17.6 µM
SK-MEL-5 melanoma
  GI50: 1.69 µM
  TGI: 3.09 µM

## COc1ccc(-n2nc(C)c3c(Nc4ccc(NC(=O)Nc5cc(C(F)(F)F)ccc5F)cc4)ncnc32)cc1
SK-MEL-28 melanoma
  GI50: 2.51 µM
  TGI: 6.29 µM
UACC-62 melanoma
  GI50: 1.88 µM
  TGI: 4.34 µM
HOP-92 NSCLC
  GI50: 2.23 µM
  TGI: 6.26 µM
OVCAR-3 ovarian
  GI50: 2.4 µM
  TGI: 6.84 µM
SNB-75 CNS
  GI50: 1.21 µM
  TGI: 7.84 µM
K-562 leukemia
  GI50: 2.99 µM
  TGI: > 100 µM
NCI-H460 lung
  GI50: 2.89 µM
  TGI: 8.7 µM
OVCAR-4 ovarian
  GI50: 2.83 µM
  TGI: > 100 µM
SR leukemia
  GI50: 2.87 µM
  TGI: > 100 µM
SK-MEL-5 melanoma
  GI50: 1.91 µM
  TGI: 3.73 µM
